Reference: patent US20250099554A1, “COMPOSITIONS AND METHODS OF FAS INHIBITION” (ONL Therapeutics, Inc., priority 2018, published 2025)
“Also recorded” adds a separate entry of the source. Where a SMILES comes first, the peptide text is derived from it.

What was measured:
[1] = test system: neural retina gene expression following elevated IOP; test: qPCR of neural retina after microbead-induced elevation of IOP (Example 1); format: in vivo, mice
Source text: Quantitative PCR (qPCR) was used on neural retina samples isolated at 28 days post microbead or saline injection from mice treated with Compound 1 (or vehicle) on Day 0.
Data shown are mRNA expression fold change over saline+vehicle control+/−SEM. N=6/group, **P<0.01, ***P<0.001, ****P<0.0001.
A 96-well was expanded to a 384-well qPCR system to allow for an increase in the number of genes to be examined in one run.
For this qPCR analysis, saline+vehicle was used as the control. DDCt=experimental DCt−mean DCt of saline+vehicle, and Expression Fold Change=2^−DDCt.

[2] = IOP by rebound tonometer in microbead-induced mouse model of elevated IOP; format: in vivo, C57BL/6J mice
Procedure: (§1) C57BL/6J mice were used in this experiment in which 2 μL of sterile polystyrene microbeads (15 μm; 7.2×10^6 bead/mL) or saline were injected into the anterior chamber on Day 0 followed by 1 μL of 0.5 mg/mL or 2 mg/mL Compound 1 or vehicle by intravitreal (IVT) injection on Day 0 or 7 days after the microbead/saline injections. IOP was followed every 3 days for 4 weeks using a rebound tonometer (TonoLab). At 4 weeks post anterior chamber injection, retinal flatmounts were prepared and stained for Brn3a, an RGC-specific protein, to visualize RGCs. Sixteen non-overlapping images were taken, at 60× with 4-5 images within each quadrant and the images were used to calculate the RGC density. For axon analysis, optic nerves were stained with p-phenylenediamine (PPD) to visualize myelinated axons and 10 non-overlapping photomicrographs were taken at 100× magnification covering the entire area of the optic nerve cross-section, and these images were used to calculate the axon density. Quantitative PCR (qPCR) was also performed on retinal tissue isolated from the mice at 28 days post microbead/saline injections. To assess production of mature IL-1β (p17), protein lysates (20 μg per sample) were prepared from posterior eye cups (neural retina, choroid, and sclera) at 28 days post microbead/saline injections and analyzed by Western blot and densitometry. All data are presented as mean±SEM. […]

[3] = test system: retinal ganglion cells (RGCs) and axons; test: RGC (Brn3a) and axon (PPD) density in microbead-induced mouse model of elevated IOP; format: in vivo, C57BL/6J mice
Procedure: (§2) C57BL/6J mice were used in this experiment in which 2 μL of sterile polystyrene microbeads (15 μm; 7.2×10^6 bead/mL) or saline were injected into the anterior chamber on Day 0 followed by 1 μL of 0.5 mg/mL or 2 mg/mL Compound 1 or vehicle by intravitreal (IVT) injection on Day 0 or 7 days after the microbead/saline injections. IOP was followed every 3 days for 4 weeks using a rebound tonometer (TonoLab). At 4 weeks post anterior chamber injection, retinal flatmounts were prepared and stained for Brn3a, an RGC-specific protein, to visualize RGCs. Sixteen non-overlapping images were taken, at 60× with 4-5 images within each quadrant and the images were used to calculate the RGC density. For axon analysis, optic nerves were stained with p-phenylenediamine (PPD) to visualize myelinated axons and 10 non-overlapping photomicrographs were taken at 100× magnification covering the entire area of the optic nerve cross-section, and these images were used to calculate the axon density. Quantitative PCR (qPCR) was also performed on retinal tissue isolated from the mice at 28 days post microbead/saline injections. To assess production of mature IL-1β (p17), protein lysates (20 μg per sample) were prepared from posterior eye cups (neural retina, choroid, and sclera) at 28 days post microbead/saline injections and analyzed by Western blot and densitometry. All data are presented as mean±SEM. One-way ANOVA and the Sidak multiple-comparison test were used for analysis of RGCs and axons. A p value<0.05 was considered significant.

[4] = test system: retinal microglia/macrophages; test: Iba1 staining of retinal whole mounts, microglia/macrophage activation; format: in vivo, C57BL/6J mice; settings: 28 days post microbead injection, treated at Day 0
Procedure: FIG. 12 depicts representative confocal images of retinal whole mounts at 28 days post microbead injection from mice treated with ONL1204 (or vehicle) at Day 0. Retinal whole mounts were stained with Iba1 (microglia/macrophage). Yellow arrows indicate homeostatic microglia with dendritic morphology; blue arrows indicate activated microglia and/or infiltrating macrophages with amoeboid morphology. Morphometric analysis was performed on Iba1+cells in the ganglion cell layer (60 cells per retina) and the longest process length measured from the edge of the cell body (in […]) was used to quantitate microglia activation.

[5] = test system: neural retina inflammatory gene expression; test: qPCR of neural retina at 28 days post microbead injection (Example 2); format: in vivo, C57BL/6J mice; settings: treated on Day 0
Procedure: as §2
(§3) Quantitative PCR was performed on neural retina isolated at 28 days post microbead injection from mice treated with ONL1204 (or vehicle) on Day 0. Data shown are mRNA expression fold change over saline controls+/−SEM. N=4/group, *P<0.05, **P<0.01. For analysis of mature IL-1β (p17) production, protein lysates ([…] per sample) were prepared from posterior eye cups (neural retina, choroid, and sclera) and analyzed by Western blot.

mature IL-1β (p17) = test: Western blot and densitometry of mature IL-1β (p17) in posterior eye cups; format: in vivo, C57BL/6J mice
Procedure: as §1, with “For axon analysis, optic nerves were stained with p-phenylenediamine (PPD) to visualize myelinated axons and 10 non-overlapping photomicrographs were taken at 100× magnification covering the entire area of the optic nerve cross-section, and these images were used to calculate the axon density.” left out, “densitometry.” for “densitometry. All data are presented as mean±SEM.”
as §3, with “Data shown are mRNA expression fold change over saline controls+/−SEM. N=4/group, *P<0.05, **P<0.01.” left out

[6] = 28 days post microbead injection, treated Day 0
[7] = 28 days post microbead injection, treated Day 0, vs microbeads and vehicle
[8] = 0.5 mg/ml, 1 μL IVT at Day 0, 4 weeks
[9] = 2.0 mg/mL IVT at Day 7 post-microbead injection, compared to saline plus vehicle controls
[10] = 2 mg/ml, 1 μL IVT at Day 0, 4 weeks

## CC[C@H](C)[C@H](NC(=O)[C@H](Cc1ccc(O)cc1)NC(=O)[C@H](CC(N)=O)NC(=O)[C@@H](NC(=O)[C@H](C)NC(=O)CNC(=O)[C@H](CC(C)C)NC(=O)[C@H](Cc1ccc(O)cc1)NC(=O)[C@@H](NC(=O)[C@H](Cc1cnc[nH]1)NC(=O)[C@@H](N)Cc1cnc[nH]1)[C@@H](C)CC)C(C)C)C(=O)N[C@@H](Cc1ccc(O)cc1)C(N)=O [Compound 1, His-His-Ile-Tyr-Leu-Gly-Ala-Val-Asn-Tyr-Ile-Tyr-amide] (H-HHIYLGAVNYIY-NH2)
[1]; 28 day time point
  ASC gene expression: Limited or no change
  Bax gene expression: unaffected
  FADD gene expression: unaffected
  FasL gene expression: unaffected
  FasR gene expression: unaffected
  NLRP2 gene expression: Limited or no change
  caspase 3 gene expression: unaffected
  complement C4 gene expression: Limited or no change
[1]; [6]
  C1q gene expression: significantly reduced
  Caspase 8 gene expression: significantly reduced
  Complement C3 gene expression: significantly reduced
  NLRP3 gene expression: significantly reduced
  TLR4 gene expression: significantly reduced
[1]; 28 days post microbead injection, treated Day 0, decreased in microbead controls
  cFLIP gene expression (pro-survival): restored to near-baseline
[1]; [7]
  GFAP gene expression: significantly reduced
  IL-1β gene expression: significantly reduced
  IL-6 gene expression: significantly reduced
  IL-18 gene expression: significantly reduced
  IP-10 gene expression: significantly reduced
  MCP-1 gene expression: significantly reduced
  MIP1α gene expression: significantly reduced
  MIP2 gene expression: significantly reduced
  MIP-1β gene expression: significantly reduced
  TNFα gene expression: significantly reduced
[2]; IVT injection on Day 7 post microbeads
  effect on IOP: did not affect
[2]; IVT injection on the same day as the microbeads
  effect on IOP: did not affect
[3]; [8]
  axon density: statistically significant preservation
  retinal ganglion cell density: statistically significant preservation
[3]; [9]
  axon density: nearly total preservation
  retinal ganglion cell density: nearly total preservation
[3]; [10]
  axon density: statistically significant preservation
  retinal ganglion cell density: statistically significant preservation
[4]
  microglial/macrophage activation: inhibits; also recorded: reduced number of activated microglia/macrophages
[5]
  CCL2/MCP-1 gene expression: substantially inhibited
  CCL3/MIP-1α gene expression: substantially inhibited
  TNF-α gene expression: substantially inhibited
Mature IL-1β (p17); 28 days post microbead injection
  production of mature IL-1β: reduced
Mature IL-1β (p17); Western blot, following microbead injection
  reduction in production of mature IL-1β by densitometry, compared to vehicle: two-fold
